From US5116816A, “Cyclosporin peptolides having an α-hydroxycarboxylic acid at position 8” (Sandoz Ltd., priority 1987, dated 1992)

Test system: UV erythema
Test: UV Erythema test
Format: in vivo, guinea pigs
Conditions: topical solution, erythema estimated four hours after application
Experimental: The test is carried out on female albino guinea pigs, approx. 150 g wt. The animals are shaved on both flanks using a Braun micro razor, without causing skin irritation. For each test substance five animals are subjected to a defined intensity of UV radiation for 10 seconds on each of four areas of skin (10 mm diameter). Immediately afterwards 50 microliters of a solution of the test substance in ethanol/propylene glycol/dimethylacetamide (19:19:2 v/v) is applied to two of the irradiated areas on each animal and 50 microliters of the solvent mixture to the other two as controls. Four hours after application, the degree of erythema is estimated visually.

**Q.** For `COc1ccc2c(c1)c(CC(=O)O)c(C)n2C(=O)c1ccc(Cl)cc1` [indomethacin], which “effective concentration in UV-erythema test” value is on record?
**A.** Its value is 2.5%.
